The test system of one assay is HSV1. The experiment in a line: Viral qPCR assay, HSV1. As to conditions: Human alphaherpesvirus 1, 72 h, infected cells, viral genome copies by qPCR normalized to PPIA, read-out: HSV1 Cell EC50. The format is cell-based. An outline of the steps: (§1)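 Genome replication over ~72 hrs at 37° C in infected MRC5, Vero or MeWo cells was measured by qPCR of a viral gene, with PPIA as the cellular reference. Compounds were tested at 10 concentrations in 3-fold dilution, and EC50 values were fitted with a 4-parameter model.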
On the technique in general: Quantitative PCR measures a nucleic acid by following its amplification.

Another assay relates to CMV. Put plainly: Viral qPCR assay, CMV. The format is cell-based. As to conditions: Human betaherpesvirus 5, 72 h, infected cells, viral genome copies by qPCR normalized to PPIA, read-out: CMV Cell EC50. The method, boiled down: as §1
For the next assay, the system named is HSV2. Put plainly: Viral qPCR assay, HSV2. Type of assay: cell-based. As to conditions: Human alphaherpesvirus 2, 72 h, infected cells, viral genome copies by qPCR normalized to PPIA, read-out: HSV2 Cell EC50. An outline of the steps:
as §1

Assay [1] concerns the target Human cytomegalovirus DNA polymerase (Human cytomegalovirus (strain AD169) (HHV-5) (Human herpesvirus 5), UniProt P08546). Put plainly: CMV polymerase assay (AlphaLISA). The format is biochemical. Conditions: HCMV polymerase 0.2 nM, 30 min pre-incubation, 60 minute at 37° C. How it is done:
(§2) Human cytomegalovirus and varicella zoster virus DNA polymerases were expressed via baculovirus vector in SF21 cells and purified. Heterodimeric nucleic acid substrate used in the herpesvirus polymerase reactions were generated by annealing a 59-mer template to a 17-mer digoxigenin-labeled primer. Polymerase (HCMV final concentration of 0.2 nM; VZV final concentration of 0.4 nM) was combined with an inhibitor compound or DMSO in assay buffer (10 mM HEPES, pH 7.5, 25 mM KCl, 25 mM NaCl, 5 mM MgCl2, 5% glycerol, 0.67 mg/ml bovine serum albumin, and 1 mM tris(2-carboxyethyl)phosphine)), and this mixture was pre-incubated for 30 minutes at room temperature in 384-well microtiter plates. The polymerization reaction was initiated by the addition of template/primer substrate (final concentration: 1.6 nM), and dNTPs (final concentration: 24 nM dCTP, 24 nMdGTP, 16 nM dATP, 16 nM dTTP, and 0.8 nM biotin-dUTP). After a 60 minute incubation period at 37° C., the reactions were terminated using quench buffer (25 mM HEPES pH 7.5, 100 mM NaCl, 0.25% Tween-20, 12 mM EDTA, and 1 mg/ml bovine serum albumin). Incorporation of biotinylated UTP was detected with 2.5-5 μg/mL anti-DIG AlphaLISA acceptor beads and 5-10 μg/mL streptavidin AlphaLISA donor beads (PerkinElmer). Compound effects were normalized to the window defined by the controls (DMSO only and pre-quenched wells), and were fit using a 4-parameter algorithm to report an IC50.
(In Alpha technology, singlet oxygen from a donor bead excites a nearby acceptor bead.)

Assay [2] addresses varicella zoster virus DNA polymerase (Varicella-zoster virus (strain Dumas) (HHV-3) (Human herpesvirus 3), UniProt P09252). Put plainly: VZV polymerase assay (AlphaLISA). The format is biochemical. Conditions: VZV polymerase 0.4 nM, 30 min pre-incubation, 60 minute at 37° C. How it is done: as §2

SMILES strings stand for the structures. pEC50, pIC50: −log10 of the molar value.

By pEC50 is commonly meant the EC50 on a negative log10 scale, so that one unit is a factor of ten. By pIC50 is commonly meant −log10 of the IC50, conventionally taken in molar units.

Regarding `O=C1OC[C@@H]2C[C@@H](Oc3ccc4nc(C5CC5)n(Cc5ccc(Cl)cc5)c(=O)c4c3)CCN12` [Example 49], the negative logarithm of the EC50 (pEC50) with HSV1 is 5.95; in the assay on CMV it was 6.43; in the assay on HSV2 it was 5.96. Also, the negative-log IC50 (pIC50) in assay [1] was 7.54; in assay [2] it was 7.37.
The matching figures for `Cc1nc2cc(-c3cnco3)c(O[C@H]3CCN4C(=O)OC[C@@H]4C3)cc2c(=O)n1Cc1ccc(Cl)cc1` [Example 51]: 7.59, 7.68, 7.80, 9.66 and 9.36.
With `Cc1nc2cc(-c3cnn(C)c3)c(O[C@H]3CCN4C(=O)OC[C@@H]4C3)cc2c(=O)n1Cc1ccc(Cl)cc1` [Example 52], the pEC50 was 7.41 in the assay with HSV1, 7.66 in the assay on CMV and 7.72 in the assay on HSV2. Further, the pIC50 in assay [1] is 9.52; in assay [2] it was 9.36.
Turning to `Cc1nc2cc(-c3cn[nH]c3)c(O[C@H]3CCN4C(=O)OC[C@@H]4C3)cc2c(=O)n1Cc1ccc(Cl)cc1` [Example 53], the pEC50 in the assay on HSV1 was 7.05; with CMV it was 7.07; in the assay on HSV2 it was 7.46. In addition, the figures for the pIC50 in assay [1] and in assay [2] were 9.12 and 9.25, respectively.
On to `Cc1nc2cc(-c3cccnc3)c(O[C@H]3CCN4C(=O)OC[C@@H]4C3)cc2c(=O)n1Cc1ccc(Cl)cc1` [Example 54], for which the negative logarithm of the EC50 (pEC50) was 6.62 in the assay with HSV1, 7.09 with CMV and 6.76 in the assay on HSV2. In addition, the pIC50 in assay [1] was 7.64; in assay [2], 7.55.
The matching figures for `Cc1nc2cc(C#N)c(O[C@H]3CCN4C(=O)OC[C@@H]4C3)cc2c(=O)n1Cc1ccc(Cl)cc1` [Example 56]: 6.91, 7.19, 6.96, 8.55 and 8.19.
As to `COc1nc2ccc(O[C@H]3CCN4C(=O)OC[C@@H]4C3)cc2c(=O)n1Cc1ccc(Cl)cc1` [Example 58], the figures for the negative-log EC50 (pEC50) in the assay on HSV1, with CMV and in the assay on HSV2 were 6.00, 6.76 and 5.94, respectively. The values for the pIC50 in assay [1] and in assay [2] were 7.64 and 7.33, respectively.
As to `Cc1nc2ccc(O[C@H]3CCN4C(=O)OC[C@@H]4C3)cc2c(=O)n1Cc1ccc(C#N)cc1` [Example 59], the negative logarithm of the EC50 (pEC50) was 6.13 with HSV1, 6.46 in the assay on CMV and 6.25 in the assay on HSV2. Moreover, the results for the pIC50 in assay [1] and in assay [2] were 7.51 and 7.54, respectively.
Take `Cc1nc2cc(-c3cnco3)c(O[C@H]3CCN4C(=O)OC[C@@H]4C3)cc2c(=O)n1Cc1ccc(C#N)cc1` [Example 60]: the negative-log EC50 (pEC50) with HSV1 is 7.08; in the assay with CMV, 7.28; in the assay on HSV2 it was 7.40. Also, the pIC50 was 9.09 in assay [1] and 9.36 in assay [2].
The matching figures for `Cc1nc2cc(-c3cnn(C(F)F)c3)c(O[C@H]3CCN4C(=O)OC[C@@H]4C3)cc2c(=O)n1Cc1ccc(C#N)cc1F` [Example 64]: 7.15, 7.19, 7.29, 8.60 and 8.05.
The matching figures for `CCc1nc2cc(-c3cnco3)c(O[C@H]3CCN4C(=O)OC[C@@H]4C3)cc2c(=O)n1Cc1ccc(C#N)cc1` [Example 65]: 7.34, 7.55, 7.74, 8.92 and 9.17.
With `Cc1nc2cc(-c3cnn(C(F)F)c3)c(O[C@H]3CCN4C(=O)OC[C@@H]4C3)cc2c(=O)n1Cc1ccc(C#N)c(F)c1` [Example 66], the negative-log EC50 (pEC50) in the assay on HSV1 was 7.37; in the assay on CMV, 7.30; in the assay on HSV2, 7.47. The pIC50 is 8.66 in assay [1] and 8.32 in assay [2].
The matching figures for `Cc1nc2ncc(O[C@H]3CCN4C(=O)OC[C@@H]4C3)cc2c(=O)n1Cc1ccc(Cl)cc1` [Example 69]: 6.06, 6.51, 5.88, 7.46 and 7.54.
The matching figures for `Cc1nc2cc(-c3cnn(C4CCN(C)CC4)c3)c(O[C@H]3CCN4C(=O)OC[C@@H]4C3)cc2c(=O)n1Cc1ccc(C#N)cc1` [Example 71]: 6.63, 6.71, 6.77, 8.43 and 7.89.
The matching figures for `Cc1nc2cc(C3CC(O)C3)c(O[C@H]3CCN4C(=O)OC[C@@H]4C3)cc2c(=O)n1Cc1ccc(C#N)cc1` (some centres unmarked) [Example 72]: 6.74, 6.71, 6.39, 8.12 and 8.33.
Regarding `Cc1nc2cc(-c3cn4c(n3)CNCC4)c(O[C@H]3CCN4C(=O)OC[C@@H]4C3)cc2c(=O)n1Cc1ccc(C#N)cc1` [Example 73], the pEC50 is 5.41 with HSV1, 5.38 with CMV and 5.52 in the assay with HSV2. Besides, the pIC50 was 9.00 in assay [1] and 8.28 in assay [2].
For `Cc1nc2cc(C3CC(C)(O)C3)c(O[C@H]3CCN4C(=O)OC[C@@H]4C3)cc2c(=O)n1Cc1ccc(C#N)cc1` (some centres unmarked) [Example 74], the pEC50 was 6.35 in the assay on HSV1, 7.26 in the assay with CMV and 6.36 with HSV2. The pIC50 in assay [1] and in assay [2] was 8.19 throughout.
Regarding `COc1ncc(-c2cc3nc(C)n(Cc4ccc(C#N)cc4)c(=O)c3cc2O[C@H]2CCN3C(=O)OC[C@@H]3C2)cn1` [Example 75], the pEC50 in the assay on HSV1 was 6.42; in the assay with CMV, 6.79; in the assay with HSV2, 6.38. In addition, the pIC50 in assay [1] was 7.54; in assay [2] it was 7.64.
Consider `Cc1nc2cc(-c3cc(C(F)(F)F)[nH]n3)c(O[C@H]3CCN4C(=O)OC[C@@H]4C3)cc2c(=O)n1Cc1ccc(C#N)cc1` [Example 76], for which the pEC50 in the assay on HSV1 is 6.39; in the assay on CMV, 6.58; in the assay on HSV2 it was 6.51. The pIC50 in assay [1] and in assay [2] was 7.96 in each case.
Consider `CCc1nc2cc(-c3cnc(OC)nc3)c(O[C@H]3CCN4C(=O)OC[C@@H]4C3)cc2c(=O)n1Cc1ccc(Cl)cc1` [Example 78], for which the negative logarithm of the EC50 (pEC50) with HSV1 was 6.39; in the assay with CMV, 6.75; with HSV2, 6.65. In addition, the negative logarithm of the IC50 (pIC50) in assay [1] is 7.82; in assay [2], 7.70.
The matching figures for `Cc1nc2cc(-c3cn4c(n3)CN(C)CC4)c(O[C@H]3CCN4C(=O)OC[C@@H]4C3)cc2c(=O)n1Cc1ccc(Cl)cc1` [Example 79]: 6.95, 6.83, 6.91, 8.31 and 8.26.
The matching figures for `Cc1nc2cc(-c3cn(C(F)F)cn3)c(O[C@H]3CCN4C(=O)OC[C@@H]4C3)cc2c(=O)n1Cc1ccc(C#N)cc1` [Example 80]: 6.80, 6.91, 6.64, 8.12 and 8.25.
`Cc1nc2cc(-c3nc4n(n3)CCN(C)C4)c(O[C@H]3CCN4C(=O)OC[C@@H]4C3)cc2c(=O)n1Cc1ccc(Cl)cc1` [Example 81]: the pEC50 with HSV1 was 6.44; in the assay with CMV it was 6.58; with HSV2 it was 6.51. Further, the pIC50 in assay [1] is 7.82; in assay [2], 7.57.
The matching figures for `Cc1nc2cc(-c3cn(C(F)F)cn3)c(O[C@H]3CCN4C(=O)OC[C@@H]4C3)cc2c(=O)n1Cc1ccc(Cl)cc1` [Example 82]: 7.20, 7.28, 7.35, 8.26 and 8.15.
Regarding `Cc1nc2cc(-c3cc4n(n3)CCNC4)c(O[C@H]3CCN4C(=O)OC[C@@H]4C3)cc2c(=O)n1Cc1ccc(Cl)cc1` [Example 84], the negative-log EC50 (pEC50) in the assay on HSV1 was 6.95; in the assay with CMV it was 6.75; with HSV2, 6.99. Besides, the pIC50 in assay [1] and in assay [2] was 9.36 throughout.

Values taken from patent US12497405B2, “Bicyclic heterocycle compounds methods of use thereof for the treatment of herpes viruses” (Merck Sharp & Dohme LLC, priority 2019, dated 2025).
